Assay [1] addresses T1, Neutrophil elastase (Homo sapiens) (UniProt P08246).
T1 sequence (whole entry): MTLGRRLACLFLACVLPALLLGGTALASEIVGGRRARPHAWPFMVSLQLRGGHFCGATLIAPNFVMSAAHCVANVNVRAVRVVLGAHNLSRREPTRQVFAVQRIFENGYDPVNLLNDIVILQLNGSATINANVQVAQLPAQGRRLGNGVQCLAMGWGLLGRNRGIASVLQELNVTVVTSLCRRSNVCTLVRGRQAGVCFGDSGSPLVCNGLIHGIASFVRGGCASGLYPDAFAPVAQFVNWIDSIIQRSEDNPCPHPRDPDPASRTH
Put plainly: Inhibition of neutrophil elastase (unknown origin) at 0.96 to 96.15 uM. The note with it: dose 0.96-96.15 µM.

A short description of assay [2]: Antiinflammatory activity against LPS-stimulated ThG elicited C57BL/6 mouse peritoneal macrophages assessed as inhibition of LPS-induced NO production measured after 24 hrs by Griess assay. It is filed as functional, Peritoneal macrophage. Set-up: concentration or dose not given beside the values.
The nature of assay [3]: Antiinflammatory activity against LPS-stimulated ThG elicited C57BL/6 mouse peritoneal macrophages assessed as inhibition of LPS-induced IL6 production measured after 24 hrs by Griess assay. It is filed as functional, Peritoneal macrophage. Set-up: concentration or dose not given beside the values. (In general: Griess reagent forms a coloured azo dye with nitrite.)
Assay [4] in a line: Antiinflammatory activity against LPS-stimulated ThG elicited C57BL/6 mouse peritoneal macrophages assessed as reduction in cell surface CD40 expression measured after 24 hrs by Flow cytometry analysis. It is filed as functional, Peritoneal macrophage. Set-up: concentration or dose not given beside the values. On the technique in general: A flow cytometer gives signals particle by particle.

Assay [5] can be described thus: Antiinflammatory activity against LPS-stimulated ThG elicited C57BL/6 mouse peritoneal macrophages assessed as reduction in cell surface CD86 expression measured after 24 hrs by Flow cytometry analysis. The assay is classed as functional, Peritoneal macrophage. Also on record: concentration or dose not given beside the values.
Assay [6] is described as follows: Antiinflammatory activity against LPS-stimulated ThG elicited C57BL/6 mouse peritoneal macrophages assessed as inhibition of LPS-induced TNFalpha production measured after 24 hrs by ELISA. It is filed as functional, Peritoneal macrophage. Set-up: scale not given: the % may be the effect or the level left. Background: An ELISA detects its analyte on a solid surface through an enzyme-linked reagent.

The subject of assay [7] is Mus musculus. Description: Antiinflammatory activity in LPS-induced C57BL/6 mouse peritonitis model assessed as reduction in LPS-induced serum IL-6 levels at 50 ug, ip treated for 3 hrs followed by LPS stimulation and measured after 24 hrs post stimulation by ELISA. It is filed as functional. Also on record: scale not given: the % may be the effect or the level left. Conditions: dose 50 µg.

The subject of assay [8] is Mus musculus. Description: Antiinflammatory activity in LPS-induced C57BL/6 mouse peritonitis model assessed as reduction in LPS-induced serum TNF alpha levels at 50 ug, ip treated for 3 hrs followed by LPS stimulation and measured after 24 hrs post stimulation by ELISA. It is filed as functional. Also on record: scale not given: the % may be the effect or the level left. Conditions: dose 50 µg.

Assay [9] concerns Mus musculus. Description: Antiinflammatory activity in LPS-induced C57BL/6 mouse peritonitis model assessed as increase in F4/80 peritoneal cell population at 50 ug, ip treated for 3 hrs followed by LPS stimulation and measured after 24 hrs post stimulation by flow cytometry. Conditions: dose 50 µg. It is filed as functional.
Assay [10] relates to Mus musculus. Put plainly: Antiinflammatory activity in LPS-induced C57BL/6 mouse peritonitis model assessed as increase in Gr1 cell population at 50 ug, ip treated for 3 hrs followed by LPS stimulation and measured after 24 hrs post stimulation by flow cytometry. It is filed as functional. The note with it: dose 50 µg.
For assay [11], the system named is Mus musculus. Put plainly: Antiinflammatory activity in LPS-induced C57BL/6 mouse peritonitis model assessed as reduction in CD40 protein expression at 50 ug, ip treated for 3 hrs followed by LPS stimulation and measured after 24 hrs post stimulation by flow cytometry. It is filed as functional. Set-up: scale not given: the % may be the effect or the level left. The note with it: dose 50 µg.

For assay [12], the system named is Mus musculus. Put plainly: Antiinflammatory activity in LPS-induced C57BL/6 mouse peritonitis model assessed as reduction in CD86 protein expression at 50 ug, ip treated for 3 hrs followed by LPS stimulation and measured after 24 hrs post stimulation by flow cytometry. It is filed as functional. Also on record: scale not given: the % may be the effect or the level left. Conditions: dose 50 µg.

The source made the active and inactive calls. The rule behind the calls is not given here. Peptide text beside a SMILES is read from it.

Regarding `CC[C@H](C)[C@H](NC(=O)[C@@H](NC(=O)[C@H](Cc1ccc(O)cc1)NC(=O)[C@H](CC(C)C)NC(=O)[C@H](Cc1ccccc1)NC(=O)[C@H](CC(C)C)NC(C)=O)C(C)C)C(=O)N[C@@H](Cc1c[nH]cn1)C(N)=O` (Ac-LFLYVIH-NH2), the inhibition entry in assay [1] was “inactive”. For the same compound, the figures for the Activity in [2], in assay [3] and in assay [4] were 57.6%, 38.4% and 45.7%, respectively.
On to `CC(=O)N[C@@H](CCC(N)=O)C(=O)N[C@@H](Cc1ccccc1)C(=O)N[C@@H](Cc1ccccc1)C(=O)N[C@@H](CCCCN)C(=O)NCC(=O)N[C@@H](CCCCN)C(N)=O` (Ac-QFFKGK-NH2), for which the inhibition result in assay [1] is “inactive”. For the same compound, the values for the Activity in assay [2], in assay [4] and in [5] were 51.8%, 41.6% and 35.2%, respectively.
`CC(=O)N[C@@H](Cc1c[nH]cn1)C(=O)N[C@@H](CS)C(=O)N[C@@H](CCCCN)C(=O)N[C@@H](CCCCN)C(=O)N[C@@H](CC(C)C)C(=O)NCC(=O)N[C@@H](CCCCN)C(=O)N[C@@H](Cc1ccccc1)C(N)=O` (Ac-HCKKLGKF-NH2): the inhibition entry in assay [1] is “inactive”.
Take `CC(=O)N[C@@H](Cc1ccc(O)cc1)C(=O)N[C@@H](CCCNC(=N)N)C(=O)N[C@@H](C)C(=O)N[C@@H](Cc1c[nH]cn1)C(=O)N[C@@H](CCC(N)=O)C(=O)NCC(=O)N[C@@H](CCC(=O)O)C(N)=O` (Ac-YRAHQGE-NH2): in assay [1], the inhibition result was “inactive”. Besides, the Activity in assay [2] is 66.9%; in [3], 52.2%; in [4] it was 55.3%; in [5] it was 52.4%.
For the compound `NC(=O)c1ccc(CNC(=O)C(Cc2c[nH]cn2)NCc2ccc(O)cc2)cc1` (configuration not stated), the values for the Activity in [3], in [4] and in assay [5] were 46.3%, 49.3% and 20.4%, respectively.
On to `CC(=O)N[C@@H](Cc1ccccc1)C(=O)N[C@@H](CCCNC(=N)N)C(=O)N[C@@H](Cc1ccc(O)cc1)C(=O)N[C@@H](CC(C)C)C(=O)N[C@H](C(=O)N[C@@H](CC(C)C)C(=O)N[C@@H](Cc1ccccc1)C(N)=O)C(C)C` (Ac-FRYLVLF-NH2), for which the inhibition entry in assay [1] was “inactive”.
On the same count and under the same terms, under `CC(=O)N[C@@H](CC(=O)O)C(=O)N[C@@H](CC(C)C)C(=O)N[C@@H](CCCCN)C(=O)N[C@@H](CCCCN)C(=O)N[C@@H](CC(=O)O)C(=O)N[C@@H](CCCCN)C(=O)N[C@@H](C)C(N)=O` (Ac-DLKKDKA-NH2) stands “inactive”.
Consider `CC(=O)N[C@@H](CC(C)C)C(=O)N[C@@H](CCC(=O)O)C(=O)NCC(=O)N1CCC[C@H]1C(=O)N[C@@H](CCCCN)C(=O)N[C@@H](C)C(N)=O` (Ac-LEGPKA-NH2), for which the inhibition entry in [1] is “inactive”.
With `CC(=O)N[C@@H](CC(C)C)C(=O)N1CCC[C@H]1C(=O)N[C@@H](CC(N)=O)C(=O)N[C@@H](CO)C(=O)N[C@@H](CC(C)C)C(=O)NCC(=O)N[C@@H](CC(N)=O)C(N)=O` (Ac-LPNSLGN-NH2), the inhibition entry in assay [1] is “inactive”. Besides, the Activity in [2] was 70.3%; in [5], 24.7%.
For `COc1cccc(C(=O)NC(Cc2c[nH]cn2)C(=O)NCc2ccc(C(N)=O)cc2)c1OC` (configuration not stated), the Activity was 29.5% in assay [2] and 46.3% in assay [3].
As to `COc1cccc(C(=O)NC(Cc2c[nH]cn2)C(=O)NC(C(N)=O)c2ccccc2)c1OC` (configuration not stated), the Activity in assay [3] is 46.3%.
For the compound `NC(=O)C(NC(=O)C(Cc1c[nH]cn1)NCc1ccc(O)cc1)c1ccccc1` (configuration not stated), the Activity in assay [2] is 38.7%; in assay [3] it was 33.5%; in [4], 27.4%; in assay [5], 16.4%; in assay [6], 19.9%; with Mus musculus [7] it was 80.6%. Moreover, the Activity in the assay on Mus musculus [8] is reported as 73.4%; in the assay with Mus musculus [9] it was 130.4%; in the assay with Mus musculus [10], 48.4%; in the assay with Mus musculus [11] it was 47.3%; in the assay on Mus musculus [12], 45.6%.
Consider `CC[C@H](C)[C@H](NC(=O)[C@H](CCC(=O)O)NC(=O)[C@H](CC(C)C)NC(=O)[C@H](CCCCN)NC(=O)[C@H](CCCCN)NC(=O)[C@H](CS)NC(=O)[C@H](Cc1c[nH]cn1)NC(=O)[C@H](CCC(N)=O)NC(C)=O)C(=O)N[C@@H](CCCCN)C(N)=O` (Ac-QHCKKLEIK-NH2), for which the inhibition entry in [1] is “inactive”.
On to `CC[C@H](C)[C@H](NC(=O)[C@H](CO)NC(=O)[C@H](CC(C)C)NC(=O)[C@H](CC(C)C)NC(=O)[C@@H](NC(=O)CNC(=O)[C@@H](NC(=O)[C@H](C)NC(C)=O)[C@@H](C)O)[C@@H](C)O)C(=O)N[C@@H](CC(N)=O)C(N)=O` (Ac-ATGTLLSIN-NH2), for which the inhibition result in assay [1] is “inactive”.
Consider `NC(=O)CCC(NC(=O)C1Cc2nc[nH]c2CN1)C(N)=O` (configuration not stated), for which the Activity in assay [3] was 46.3%; in [6] it was 24.4%.
As for `NC(=O)c1ccc(CNC(=O)C(Cc2c[nH]cn2)NCc2cccc(O)c2)cc1` (configuration not stated), in [3], the Activity turned out to be 46.3%.

The values are drawn from ChEMBL document CHEMBL5038621, “Development of anti-inflammatory peptidomimetics based on the structure of human alpha1-antitrypsin” (2022).
